Measurements reported in patent US20180008573A1, “METHODS AND COMPOSITIONS FOR REDUCING DAMAGE ASSOCIATED WITH OXIDATIVE PHOSPHORYLATION” (USANA Health Sciences, Inc., priority 2016, published 2018).

How the values were obtained:
NF-κB reporter cells = test: Live cell multiplex assay in the NF-κB antagonist assay; format: cell-based, human
Procedure: A vehicle control was prepared.

Nrf2 = target: T1, Nrf2 (Homo sapiens, UniProt Q16236); test: Nrf2 agonist reporter assay (native receptor, ARE-luciferase, CV1 cells); format: cell-based; set-up: comprising either the native receptor (Nrf2 and NF-κB); expressed in transfected cells; host or cells: CV1
T1 sequence (Q16236 1-605): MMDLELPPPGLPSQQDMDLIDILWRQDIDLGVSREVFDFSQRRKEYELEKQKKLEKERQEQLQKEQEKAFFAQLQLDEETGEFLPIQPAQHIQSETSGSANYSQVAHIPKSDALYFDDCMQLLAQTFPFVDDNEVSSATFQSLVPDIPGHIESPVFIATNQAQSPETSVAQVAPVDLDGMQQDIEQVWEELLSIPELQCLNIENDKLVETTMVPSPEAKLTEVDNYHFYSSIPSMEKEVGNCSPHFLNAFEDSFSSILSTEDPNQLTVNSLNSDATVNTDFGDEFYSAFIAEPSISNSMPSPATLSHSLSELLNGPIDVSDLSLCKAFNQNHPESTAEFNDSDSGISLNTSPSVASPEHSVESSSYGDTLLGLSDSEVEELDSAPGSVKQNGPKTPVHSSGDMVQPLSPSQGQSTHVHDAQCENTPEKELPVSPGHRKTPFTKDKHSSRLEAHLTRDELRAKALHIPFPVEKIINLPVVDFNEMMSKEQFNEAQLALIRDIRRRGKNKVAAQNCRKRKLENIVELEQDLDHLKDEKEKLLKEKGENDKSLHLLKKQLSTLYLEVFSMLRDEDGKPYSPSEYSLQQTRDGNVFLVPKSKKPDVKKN

human PPARα = target: T2, human PPARα (Homo sapiens, UniProt Q07869); test: PPARα agonist reporter assay (Gal4 hybrid receptor, luciferase, CHO cells); format: cell-based
T2 construct: expressed in transfected cells; host or cells: CHO
T2 sequence (Q07869 239-466 limits assumed): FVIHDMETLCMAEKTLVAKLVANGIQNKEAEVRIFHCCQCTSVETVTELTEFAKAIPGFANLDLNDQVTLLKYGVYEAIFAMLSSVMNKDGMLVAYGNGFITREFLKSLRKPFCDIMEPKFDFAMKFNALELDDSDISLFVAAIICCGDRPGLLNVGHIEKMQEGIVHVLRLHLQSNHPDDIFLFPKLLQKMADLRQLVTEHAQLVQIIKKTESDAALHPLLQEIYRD

human NF-κB = test: NF-κB antagonist reporter assay (NF-κB GRE-luciferase, HEK293 cells); format: cell-based;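 note: reporter cells carry native NF-κB receptor with firefly luciferase under upstream response elements, with a vehicle control included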
human PPARγ = target: T3, human PPARγ (Homo sapiens, UniProt P37231); test: PPARγ agonist reporter assay (Gal4 hybrid receptor, luciferase, CHO cells); format: cell-based
T3 construct: expressed in transfected cells; host or cells: CHO
T3 sequence (P37231 238-503 limits assumed): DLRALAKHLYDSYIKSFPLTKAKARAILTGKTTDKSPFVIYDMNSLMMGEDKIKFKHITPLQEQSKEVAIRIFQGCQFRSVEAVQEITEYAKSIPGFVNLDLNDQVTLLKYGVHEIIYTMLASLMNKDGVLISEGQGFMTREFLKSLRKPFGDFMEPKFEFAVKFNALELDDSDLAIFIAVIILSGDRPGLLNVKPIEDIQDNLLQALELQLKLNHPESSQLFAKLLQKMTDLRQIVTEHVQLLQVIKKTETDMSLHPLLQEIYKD

O=C(O)CCCCC1CCSS1 (racemic) [Alpha lipoic acid, alpha lipoic acid]
NF-κB % Live Cell (NF-κB reporter cells; 1.42 μg/ml active ingredient): 100% | NF-κB % Live Cell (NF-κB reporter cells; 4.25 μg/ml active ingredient): 104% | NF-κB % Live Cell (NF-κB reporter cells; 12.7 μg/ml active ingredient): 102% | NF-κB % Live Cell (NF-κB reporter cells; 38.23 μg/ml active ingredient): 104% | NF-κB % Live Cell (NF-κB reporter cells; 114.70 μg/ml active ingredient): 105% | Nrf2 Fold-Activation (Nrf2; 1.42 μg/ml active ingredient): 1.4 fold | Nrf2 Fold-Activation (Nrf2; 4.25 μg/ml active ingredient): 1.4 fold | Nrf2 Fold-Activation (Nrf2; 12.7 μg/ml active ingredient): 1.5 fold | Nrf2 Fold-Activation (Nrf2; 38.23 μg/ml active ingredient): 1.5 fold | Nrf2 Fold-Activation (Nrf2; 114.70 μg/ml active ingredient): 2.4 fold | agonist activity against human Nrf2 (Nrf2; at the concentrations tested): very low-level agonist activity | PPARα Fold-Activation (human PPARα; 1.42 μg/ml active ingredient): 1.4 fold | PPARα Fold-Activation (human PPARα; 4.25 μg/ml active ingredient): 1.3 fold | PPARα Fold-Activation (human PPARα; 12.7 μg/ml active ingredient): 1.2 fold | PPARα Fold-Activation (human PPARα; 38.23 μg/ml active ingredient): 1.5 fold | PPARα Fold-Activation (human PPARα; 114.70 μg/ml active ingredient): 2.3 fold | agonist activity against human PPARα (human PPARα; at the concentrations tested): very low-level agonist activity | NF-κB % Inhibition (human NF-κB; 1.42 μg/ml active ingredient): 3.1% | NF-κB % Inhibition (human NF-κB; 4.25 μg/ml active ingredient): −0.70% | NF-κB % Inhibition (human NF-κB; 12.7 μg/ml active ingredient): −6.1% | NF-κB % Inhibition (human NF-κB; 38.23 μg/ml active ingredient): 5.9% | NF-κB % Inhibition (human NF-κB; 114.70 μg/ml active ingredient): −14% | PPARγ Fold-Activation (human PPARγ; 1.42 μg/ml active ingredient): 1.1 fold | PPARγ Fold-Activation (human PPARγ; 4.25 μg/ml active ingredient): 1.1 fold | PPARγ Fold-Activation (human PPARγ; 12.7 μg/ml active ingredient): 1.3 fold | PPARγ Fold-Activation (human PPARγ; 38.23 μg/ml active ingredient): 1.4 fold | PPARγ Fold-Activation (human PPARγ; 114.70 μg/ml active ingredient): 3.4 fold | agonist activity against human PPARγ (human PPARγ; at the concentrations tested): very low-level agonist activity | induction concentration (PPARγ) (human PPARγ; in the mixture): 1.22 µg/mL | induction concentration (PPARγ) (human PPARγ; used alone): 114.8 µg/mL
